The values below come from US20030215517A1, “Process for production of crystals of an adjuvant substance, crystals obtained thereby and pharmaceutical preparations containing them” (priority 2002, published 2003).

Marks after values point to notes of the source that are not given here.

Common to all, as to assay type: physicochemical
Series [1] in a line: Particle size distribution before and after drying (Sympatec HELOS, dry dispersion RODOS). How it is done: The particle size distribution in Table I was measured with a Sympatec HELOS (H0445), dry dispersion system (RODOS), pressure 2 bar.
A short description of series [2]: Particle size development during crystallization with wet milling and temperature cycles (Example 1). How it is done:
In a sulfonation flask with a blade mixer and a heating/cooling bath 30 g of lactose monohydrate are dissolved in 100 g of water at 62° C. A rotor-stator dispersing apparatus (Ultra Turrax, T25 basic, with S25N-25F) is operated with a rotation speed of 12000 to 22000 rpm to prepare the solution. Then 300 g of ethanol are added. After 1 to 2 minutes crystallization begins at 25 to 35° C. The Ultra Turrax is operated for an additional 10 minutes and then is shut off.
The starting suspension obtained is heated at 50° C. and subsequently cooled within an interval of 1 hour at 20° C. This procedure is repeated still twice more.

Series [3] is described as follows: Particle size distribution of spray-dried microcrystals (Example 2). The settings on record: Example 2, microcrystals spray-dried from ethanol suspension. As for the experimental part:
(§1) Subsequently the suspension obtained in example 1 is filtered by means of a frit and washed with 100 ml of ethanol. The filter cake is suspended in 300 ml ethanol. The suspension is spray-dried under the following conditions in a laboratory spray-drier with two nozzles (2 mm) (QVF/Yamato):
(§2) Microcrystals are obtained in a separating filter of the spray-drier with the following particle size distribution: […]

A short description of series [4]: Moisture content of spray-dried microcrystals (Example 2). The settings on record: Example 2, microcrystals spray-dried from ethanol suspension. How it is done:
as §1, §2

Setting [5] is: Suspension, 7 percent by weight lactose monohydrate in EtOH/water 75/25 (w/w), before drying.
The mark [6] stands for this setting: Example 1, 1st Cycle (heated at 50° C., cooled to 20° C. within 1 hour).

In series [1] (After spray-drying, dry powder), `O.OC[C@H]1O[C@@H](O[C@H]2[C@H](O)[C@@H](O)C(O)O[C@@H]2CO)[C@H](O)[C@@H](O)[C@H]1O` (stereo partly drawn) [lactose monohydrate] came in with an X10 particle diameter of 2.25 μm, an X50 particle diameter of 6.0 μm and an X100 particle diameter of 43 μm. In addition, in series [1] (setting [5]), the X10 particle diameter was 2.11*** μm, the X50 particle diameter is 5.9 μm and the X100 particle diameter was 43 μm. In addition, in series [2] (setting [6]), the X50 is on record as 5 μm and the X100 was 43 μm. In series [2] (Example 1, 2nd Cycle), this molecule displayed an X50 of 5.5 μm and an X100 of 43 μm. In series [2] (Example 1, 3rd Cycle), the X50 amounted to 6 μm and the X100 is on record as 43 μm. Moreover, in series [2] (Example 1, Starting Suspension), the X50 was 3 μm and the X100 was 30 μm. Further, in series [3], the “Particle size X10” value stood at 2.5 μm, the “Particle size X50” value was found to be 5.9 μm and the “Particle size X100” value is reported as 43 μm. The molecule further yielded a Moisture content in series [4] of 4.5%.
